Values after ≈ are worked out from the molar mass of the structure shown. Read-outs that look alike come from different tables or passages of the source.
Tests used:
Eu-Myc Arf −/− cells = test: Cell viability, CELL TITER GLO assay (Promega), Eu-Myc Arf −/− cells; assay type: cell-based
Method: (§1) The effect of compound 1 on cell viability in several cancer cell lines were determined. The cancer cell lines employed in the assay included those corresponding to hematopoietic and solid tumors. Exemplary results are shown in FIGS. 2A to 2E, where viability was assessed by CELL TITER GLO assay (Promega). Compound 1 was also submitted in a blinded fashion to the National Cancer Institute's CTD cancer cell line profiling pipeline, which enabled sensitivity profiling in about 800 cancer cell lines with annotation of specific genomic lesions that impart on human cancers (FIGS. 3A to 3B). […] The effects of other compounds described herein on cell viability in several cancer cell lines were also determined, and exemplary results are shown in Table 2, where viability was assessed by CELL TITER GLO assay (Promega).

c-Myc [1] = test: c-Myc reporter gene assay (Qiagen) in HEK293T cells; assay type: cell-based; settings: Homo sapiens, HEK-293T, 16 h, treatment 16 hours, Firefly/Renilla ratio
Method: Compound 1's activity against Myc was measured as a Firefly/Renilla ratio, using the Myc reporter assay (Qiagen) in HEK293T cells after treatment with compound 1 for 16 hours. Results are expressed as a mean+/−SD (n=3). SD: standard deviation.
Select compounds described herein that were SMM assay positives were evaluated in several versions of a c-Myc reporter gene assay, including a commercial assay from Qiagen. The compounds' activities against c-Myc were measured as a Firefly/Renilla ratio, using the Myc reporter assay (Qiagen) in HEK293T cells after treatment with the compounds for 16 hours.

NCIH1975 cells = test: Cell viability, CELL TITER GLO assay (Promega), NCIH1975 cells; assay type: cell-based; settings: Homo sapiens, NCI-H1975
Method: (§2) FIGS. 2A to 2E show exemplary results of cell viability assay of compound 1. […] Results were expressed as a mean+/−SEM (n=3). RLU: Relative Luminescence Units.
as §1

Namalwa cells = test: Cell viability, CELL TITER GLO assay (Promega), Namalwa cells; assay type: cell-based
Method: as §2, §1

c-Myc [2] = test: Affinity-based pull down of c-Myc from nuclear lysate with compound-loaded beads, Western blot; assay type: binding
Method: Compound 19 beads (Figure SA) and compound 55 beads (FIG. 5B) were used. Results are expressed as a mean+/−SEM (n=3). Compound 55 beads were formed by a method analogous to the method shown in FIG. 4, where beads were linked to the —NH2 moiety of compound 55 by forming a urea moiety.
In order to explore the mechanism of action of compound 1, preliminary target identification experiments involving affinity-based pull downs were carried out. […] The structure of compound 19 allowed for linking compound 1 to beads (AFFI-GEL 102, Bio-Rad) (FIG. 4).
The linkage site to the bead via the nitrogen atom of the benzimidazolyl moiety was the original site of attachment to the small-molecule microarray and represented the orientation in the original screen.

[3] = Aqueous solubility at 37° C.; assay type: physicochemical
[4] = Intrinsic clearance (liver microsomes, human), half-life; assay type: in vitro ADME
cancer cell lines = test: Cell viability in cancer cell lines (CELL TITER GLO; CTD cancer cell line profiling); assay type: cell-based
Method: as §2
FIGS. 3A to 3B show CTD^2 viability data profile of cancer cell lines treated with compound 1. FIG. 3A: dose response curves of 789 cell lines treated with compound 1 for 72 hours. FIG. 3B: relative percent composition of cell lineages and enrichment analysis after treatment with compound 1.
as §1

Row | SMILES | IC50 (c-Myc [1]) [µM] | solubility ([3]; aqueous buffer, PBS, pH 7.4, 37° C., read-out: Solubility at 37° C., aqueous solubility (PBS, pH 7.4)) [µM] | solubility ([3]; fassgf or other biorelevant, simulated intestinal fluid, 37° C., read-out: Solubility at 37° C., aqueous solubility (simulated intestinal fluid)) [µM] | solubility ([3]; simulated gastric fluid, 37° C., read-out: Solubility at 37° C., aqueous solubility (simulated gastric fluid)) [µM] | Half-life, intrinsic clearance (liver microsomes, human) [4] [min] | IC50 (Eu-Myc Arf −/− cells) [µM] | IC50 (NCIH1975 cells) [µM] | IC50 (Namalwa cells) [µM] | c-Myc levels pulled down with free compound as soluble competitor (c-Myc [2]; beads linked via nitrogen atom of the benzimidazolyl moiety (compound 55 beads)) | c-Myc pulled down with free compound as soluble competitor (c-Myc [2]; compound 19 beads, nuclear lysate, 5 μM soluble competitor) | effect on cell viability in 5 cancer cell lines (cancer cell lines; 3 days, NCIH1975, SNUC5, Namalwa, KLP1, Hela, CELL TITER GLO) | effect on cell viability in a variety of cancer cell lines (cancer cell lines; several cancer cell lines and CTD profiling of about 800 cancer cell lines, 72 hours)
1 | O=C(O)CN1C(=O)S/C(=C\c2ccc(Sc3nc4ccccc4[nH]3)o2)C1=O [Compound 26] | 33.6 |  |  |  |  | > 50 | > 50 | > 50 |  |  |  | 
2 | CC(C)N1C(=O)S/C(=C\c2ccc(Sc3nc4ccccc4o3)o2)C1=O [Compound 6, (Z)-5-((5-(benzo[d]oxazol-2-ylthio)furan-2-yl)methylene)-3-isopropylthiazolidine-2,4-dione] | 9.39 |  |  |  |  | > 50 | > 50 | 37.2 |  |  |  | 
3 | OCc1ccc(Sc2nc3ccccc3[nH]2)o1 [Compound 40, (5-((1H-benzo[d]imidazol-2-yl)thio)furan-2-yl)methanol] | > 40 |  |  |  |  | 14.1 | > 50 | > 50 |  |  |  | 
4 | CC(C)N1C(=O)N/C(=C\c2ccc(Sc3nc4ccc(Cl)cc4[nH]3)o2)C1=O [Compound 22, (Z)-5-((5-((6-chloro-1H-benzo[d]imidazol-2-yl)thio)furan-2-yl)methylene)-3-isopropylimidazolidine-2,4-dione] | 1.05 |  |  |  |  | 6.09 | 45.3 | 16.5 |  |  |  | 
5 | O=C(CCCC[C@H]1SC[C@H]2NC(=O)N[C@H]21)NCCCN1C(=O)S/C(=C\c2ccc(Sc3nc4ccccc4[nH]3)o2)C1=O [Compound 27, N-(3-((Z)-5-((5-((1H-benzo[d]imidazol-2-yl)thio)furan-2-yl)methylene)-2,4-dioxothiazolidin-3-yl)propyl)-5-((3aR,4R,6aS)-2-oxohexahydro-1H-thieno[3,4-d]imidazol-4-yl)pentanamide] | 2.28 |  |  |  |  | 26 | > 50 | 12.2 |  |  |  | 
6 | CC(C)N1C(=O)N/C(=C\c2ccc(Sc3nc4ccccc4[nH]3)o2)C1=O [Compound 8, (Z)-5-((5-((1H-benzo[d]imidazol-2-yl)thio)furan-2-yl)methylene)-3-isopropylimidazolidine-2,4-dione] | 0.83 |  |  |  |  | 11.8 | > 50 | > 50 |  |  |  | 
7 | O=C1C/C(=C\c2ccc(Sc3nc4ccccc4[nH]3)o2)C(=O)N1 [Compound 9, (E)-3-((5-((1H-benzo[d]imidazol-2-yl)thio)furan-2-yl)methylene)pyrrolidine-2,5-dione] | 9.02 |  |  |  |  | > 50 | > 50 | > 50 |  |  |  | 
8 | CC(C)N1C(=O)S/C(=C\c2ccc(Sc3nc4ccccc4s3)o2)C1=O [Compound 3, (Z)-5-((5-(benzo[d]thiazol-2-ylthio)furan-2-yl)methylene)-3-isopropylthiazolidine-2,4-dione] | 5.72 |  |  |  |  | > 50 | > 50 | 31.1 |  |  |  | 
9 | O=C1NC(=O)/C(=C/c2ccc(Sc3nc4ccccc4[nH]3)o2)N1 [Compound 2, (Z)-5-((5-((1H-benzo[d]imidazol-2-yl)thio)furan-2-yl)methylene)imidazolidine-2,4-dione] | 7.5 |  |  |  |  | > 50 | > 50 | > 50 |  |  |  | 

Second part, led by results:

Row | IC50 (c-Myc [1]) [µM] | solubility ([3]; aqueous buffer, PBS, pH 7.4, 37° C., read-out: Solubility at 37° C., aqueous solubility (PBS, pH 7.4)) [µM] | solubility ([3]; fassgf or other biorelevant, simulated intestinal fluid, 37° C., read-out: Solubility at 37° C., aqueous solubility (simulated intestinal fluid)) [µM] | solubility ([3]; simulated gastric fluid, 37° C., read-out: Solubility at 37° C., aqueous solubility (simulated gastric fluid)) [µM] | Half-life, intrinsic clearance (liver microsomes, human) [4] [min] | SMILES | IC50 (Eu-Myc Arf −/− cells) [µM] | IC50 (NCIH1975 cells) [µM] | IC50 (Namalwa cells) [µM] | c-Myc levels pulled down with free compound as soluble competitor (c-Myc [2]; beads linked via nitrogen atom of the benzimidazolyl moiety (compound 55 beads)) | c-Myc pulled down with free compound as soluble competitor (c-Myc [2]; compound 19 beads, nuclear lysate, 5 μM soluble competitor) | effect on cell viability in 5 cancer cell lines (cancer cell lines; 3 days, NCIH1975, SNUC5, Namalwa, KLP1, Hela, CELL TITER GLO) | effect on cell viability in a variety of cancer cell lines (cancer cell lines; several cancer cell lines and CTD profiling of about 800 cancer cell lines, 72 hours)
10 | 0.64 |  |  |  |  | CC(C)c1ccc2nc(Sc3ccc(/C=C4\SC(=O)N(C(C)C)C4=O)o3)[nH]c2c1 [Compound 29, (Z)-3-isopropyl-5-((5-((6-isopropyl-1H-benzo[d]imidazol-2-yl)thio)furan-2-yl)methylene)thiazolidine-2,4-dione] | 13.1 | 19.9 | 15.3 |  |  |  | 
11 | 1.5 |  |  |  |  | Cc1cccc2nc(Sc3ccc(/C=C4\SC(=O)N(C(C)C)C4=O)o3)[nH]c12 [Compound 23, (Z)-3-isopropyl-5-((5-((7-methyl-1H-benzo[d]imidazol-2-yl)thio)furan-2-yl)methylene)thiazolidine-2,4-dione] | 10.5 | 28.2 | 33.9 |  |  |  | 
12 | 1.19 |  |  |  |  | COc1ccc2nc(Sc3ccc(/C=C4\SC(=O)N(C(C)C)C4=O)o3)[nH]c2c1 [Compound 5, (Z)-3-isopropyl-5-((5-((6-methoxy-1H-benzo[d]imidazol-2-yl)thio)furan-2-yl)methylene)thiazolidine-2,4-dione] | > 50 | 34.5 | 42.1 |  |  |  | 
13 | 1.63 |  |  |  |  | COc1cccc2nc(Sc3ccc(/C=C4\SC(=O)N(C(C)C)C4=O)o3)[nH]c12 [Compound 30, (Z)-3-isopropyl-5-((5-((7-methoxy-1H-benzo[d]imidazol-2-yl)thio)furan-2-yl)methylene)thiazolidine-2,4-dione] | 11.1 | 56.3 | 72 |  |  |  | 
14 | 0.63 |  |  |  |  | CC(C)N1C(=O)S/C(=C\c2ccc(Sc3nc4cc(Cl)c(Cl)cc4[nH]3)o2)C1=O [Compound 25, (Z)-5-((5-((5,6-dichloro-1H-benzo[d]imidazol-2-yl)thio)furan-2-yl)methylene)-3-isopropylthiazolidine-2,4-dione] | 5.51 | 7.88 | 3.95 |  |  |  | 
15 | 0.67 | < 1 | 80.2 (≈ 30.9 µg/mL) | 62.7 (≈ 24.2 µg/mL) | 22 | CC(C)N1C(=O)S/C(=C\c2ccc(Sc3nc4ccccc4[nH]3)o2)C1=O [Compound 1, (Z)-5-((5-((1H-benzo[d]imidazol-2-yl)thio)furan-2-yl)methylene)-3-isopropylthiazolidine-2,4-dione] | 10.2 | 24.9 | 21.1 | decreased levels of c-Myc | less c-Myc pulled down | affected cell viability | demonstrated an effect in cell viability
16 | 0.79 |  |  |  |  | CC(C)N1C(=O)S/C(=C\c2ccc(Sc3nc4ccc(Cl)cc4[nH]3)o2)C1=O [Compound 4, (Z)-5-((5-((6-chloro-1H-benzo[d]imidazol-2-yl)thio)furan-2-yl)methylene)-3-isopropylthiazolidine-2,4-dione] | 11 | 17.3 | 12.4 |  |  |  | 
17 | 5.6 |  |  |  |  | CC(C)N1C(=O)S/C(=C\c2ccc(Sc3nc4cccnc4[nH]3)o2)C1=O [Compound 10, (Z)-5-((5-((3H-imidazo[4,5-b]pyridin-2-yl)thio)furan-2-yl)methylene)-3-isopropylthiazolidine-2,4-dione] | 33.1 | > 50 | > 50 |  |  |  | 
18 | 0.64 |  |  |  |  | CC(C)N1C(=O)S/C(=C\c2ccc(Sc3nc4ccc(C(F)(F)F)cc4[nH]3)o2)C1=O [Compound 24, (Z)-3-isopropyl-5-((5-((6-(trifluoromethyl)-1H-benzo[d]imidazol-2-yl)thio)furan-2-yl)methylene)thiazolidine-2,4-dione] | 11.2 | 12.5 | 7.94 |  |  |  | 
19 | 0.98 |  |  |  |  | CC(C)N1C(=O)S/C(=C\c2ccc(Sc3nc4cccc(Cl)c4[nH]3)o2)C1=O [Compound 28, (Z)-5-(5-(((7-chloro-H-benzo[d]imidazol-2-yl)thio)furan-2-yl)methylene)-3-isopropylthiazolidine-2,4-dione] | 5.36 | 15.6 | 9.41 |  |  |  | 
